Source: patent US20260001889A1, “COMPOSITIONS USEFUL FOR MODULATING SPLICING” (Skyhawk Therapeutics, Inc., priority 2022, published 2026)

Legend:
[1] = system: total ATXN3 protein; assay: ATXN3 Total Protein Assay (Mesoscale Discovery, SK-N-MC cells); type: cell-based, Human; conditions: incubation for 48 hours, MSD assay
How it was run: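 Readout: MSD electrochemiluminescence immunoassay of lysates, calibrated with recombinant ATXN3 and using mouse/rabbit anti-ATXN3 antibody pair. Cells (SK-N-MC, human) were exposed for 48 h to compound doses between 30 μM and 0.6 nM.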

[2] = system: ATXN3-HiBiT protein; assay: ATXN3 Total Protein Assay (Kelly-ATXN3-HiBiT luminescence); type: cell-based; conditions: Kelly-ATXN3-HiBiT cells, 48 h after addition of compound
How it was run: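 Endogenous ATXN3-HiBiT protein in knock-in Kelly neuroblastoma cells measured by lytic HiBiT luminescence 48 h post-compound (added 24 h after seeding 2000 cells/well). Values are fold changes relative to DMSO, with viability from a parallel CellTiter-Glo plate.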

[3] = system: ATXN3 transcripts containing exon 4; assay: ATXN3 Quantitative Splicing Assay (qPCR, E4E5 primers/probe); type: cell-based; conditions: Homo sapiens, SK-N-MC cells, compounds for 24 h
How it was run: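 Exon 4-containing ATXN3 transcripts are quantified by TaqMan qPCR (E4E5 primers/probe) on cell-lysate cDNA, with total ATXN3 from the E8E9 set. Source cells: human neuroblastoma SK-N-MC, exposed for 24 h to compound at 30 μM down to 0.6 nM.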

Molecule `N[C@@H](COC(F)F)Cc1oc2c(NCc3cccs3)cc(Cl)nc2c1Cl` [Compound 188, 2-[(R)-2-amino-3-difluoromethoxypropyl]-3,5-dichloro-7-thenylamino-1-oxa-4-azaindene] has an IC50 [1] of 101 to 500 nM, an EC50 [2] of 0.01 to 100 nM and an IC50 [3] of 101 to 500 nM.
`C[C@H](N)C(F)(F)c1oc2c(NCc3cccs3)cc(Cl)nc2c1Cl` [Compound 189, 2-[(S)-2-amino-1,1-difluoropropyl]-3,5-dichloro-7-thenylamino-1-oxa-4-azaindene] showed an IC50 [1] of 101 to 500 nM, an EC50 [2] of 101 to 500 nM and an IC50 [3] of 101 to 500 nM.
Molecule `N[C@@H](CO)C(F)(F)c1oc2c(NCc3cccs3)cc(Cl)nc2c1Cl` [Compound 190, (S)-2-amino-3-(3,5-dichloro-7-thenylamino-1-oxa-4-aza-2-indenyl)-3,3-difluoro-1-propanol] has an IC50 [1] of 501 to 5000 nM, an EC50 [2] of 501 to 5000 nM and an IC50 [3] of 501 to 5000 nM.
With `N[C@@H](CO)C(F)(F)c1oc2c(NCc3cccs3)cc(Cl)nc2c1Br` [Compound 192, (S)-2-amino-3-(3-bromo-5-chloro-7-thenylamino-1-oxa-4-aza-2-indenyl)-3,3-difluoro-1-propanol] the IC50 [1] was 101 to 500 nM, the EC50 [2] was 101 to 500 nM and the IC50 [3] was 101 to 500 nM.
For `COC[C@H](N)C(F)(F)c1oc2c(NCc3cccs3)cc(Cl)nc2c1Br` [Compound 193, 2-[(S)-2-amino-1,1-difluoro-3-methoxypropyl]-3-bromo-5-chloro-7-thenylamino-1-oxa-4-azaindene], the IC50 [1] was 501 to 5000 nM, the EC50 [2] was 501 to 5000 nM and the IC50 [3] was 501 to 5000 nM.
Work on `C=Cc1c(C[C@H](C)N)oc2c(NCc3cccs3)cc(Cl)nc12` [Compound 194, 2-[(S)-2-aminopropyl]-5-chloro-7-thenylamino-3-vinyl-1-oxa-4-azaindene] yielded an IC50 [1] of 501 to 5000 nM, an EC50 [2] of 101 to 500 nM and an IC50 [3] of 501 to 5000 nM.
With `C#Cc1c(C[C@@H](N)COC(F)F)oc2c(NCc3cccs3)cc(Cl)nc12` [Compound 196, 2-[(R)-2-amino-3-difluoromethoxypropyl]-5-chloro-3-ethynyl-7-thenylamino-1-oxa-4-azaindene] the IC50 [1] was 0.01 to 100 nM, the EC50 [2] was 0.01 to 100 nM and the IC50 [3] was 0.01 to 100 nM.
`C[C@H](O)Cc1oc2c(NCc3cccs3)cc(Cl)nc2c1Br` [Compound 213, (S)-1-(3-bromo-5-chloro-7-thenylamino-1-oxa-4-aza-2-indenyl)-2-propanol] showed an IC50 [1] of 501 to 5000 nM, an EC50 [2] of 501 to 5000 nM and an IC50 [3] of 501 to 5000 nM.
`N[C@@H](CCOC(F)F)Cc1oc2c(NCc3nccs3)cc(Cl)nc2c1Br` [Compound 216, 2-[(S)-2-amino-4-difluoromethoxybutyl]-3-bromo-5-chloro-7-{[(1,3-thiazol-2-yl)methyl]amino}-1-oxa-4-azaindene] was tested, and the IC50 [1] was 101 to 500 nM, the EC50 [2] was 101 to 500 nM and the IC50 [3] was 101 to 500 nM.
`[2H]C([2H])(Nc1cc(Cl)nc2c(Br)c(C[C@H](C)N)oc12)c1cccs1` [Compound 221, 2-[(S)-2-aminopropyl]-3-bromo-5-chloro-7-{[(2-thienyl)(^2H2)methyl]amino}-1-oxa-4-azaindene] was tested, and the IC50 [1] was 0.01 to 100 nM, the EC50 [2] was 0.01 to 100 nM and the IC50 [3] was 0.01 to 100 nM.
`[2H]C([2H])(Nc1cc(Cl)nc2c(Br)c(C[C@@H](N)CCOC(F)F)oc12)c1cccs1` [Compound 222, 2-[(S)-2-amino-4-difluoromethoxybutyl]-3-bromo-5-chloro-7-{[(2-thienyl)(^2H2)methyl]amino}-1-oxa-4-azaindene] showed an IC50 [1] of 0.01 to 100 nM, an EC50 [2] of 0.01 to 100 nM and an IC50 [3] of 101 to 500 nM.
`CC(C)(N)Cc1oc2c(NCc3cccs3)cc(Cl)nc2c1Br` [Compound 226, 2-(2-amino-2-methylpropyl)-3-bromo-5-chloro-7-thenylamino-1-oxa-4-azaindene] was tested, and the IC50 [1] was 501 to 5000 nM, the EC50 [2] was 501 to 5000 nM and the IC50 [3] was 501 to 5000 nM.
`NC1(Cc2oc3c(NCc4cccs4)cc(Cl)nc3c2Br)CC1` [Compound 227, 2-[(1-aminocyclopropyl)methyl]-3-bromo-5-chloro-N-(thiophen-2-ylmethyl)furo[3,2-b]pyridin-7-amine] gave an IC50 [1] of 501 to 5000 nM, an EC50 [2] of 501 to 5000 nM and an IC50 [3] of 501 to 5000 nM.
`C[C@H](F)[C@H](N)Cc1oc2c(NCc3cccs3)cc(Cl)nc2c1C#N` [Compound 237, 2-[(2R,3S)-2-amino-3-fluorobutyl]-5-chloro-7-[(thiophen-2-ylmethyl)amino]furo[3,2-b]pyridine-3-carbonitrile] was tested, and the IC50 [1] was 5000 to 10000 nM, the EC50 [2] was 10000 to 40000 nM and the IC50 [3] was 10000 to 40000 nM.
For `C[C@H](N)Cc1oc2c(NCc3ccco3)cc(Cl)nc2c1C#N` [Compound 238, 2-[(S)-2-aminopropyl]-5-chloro-7-(furfurylamino)-1-oxa-4-aza-3-indenecarbonitrile], the IC50 [1] was 10000 to 40000 nM, the EC50 [2] was 10000 to 40000 nM and the IC50 [3] was 10000 to 40000 nM.
For `C[C@H](N)C(F)(F)c1oc2c(NCc3ccco3)cc(Cl)nc2c1Cl` [Compound 239, 2-[(S)-2-amino-1,1-difluoropropyl]-3,5-dichloro-7-(furfurylamino)-1-oxa-4-azaindene], the IC50 [1] was 101 to 500 nM, the EC50 [2] was 101 to 500 nM and the IC50 [3] was 101 to 500 nM.
With `C[C@H](F)[C@H](N)Cc1oc2c(NCc3cccs3)cc(Cl)nc2c1C1CC1` [Compound 240, 2-[(2R,3S)-2-amino-3-fluorobutyl]-5-chloro-3-cyclopropyl-7-thenylamino-1-oxa-4-azaindene] the IC50 [1] was 501 to 5000 nM, the EC50 [2] was 501 to 5000 nM and the IC50 [3] was 501 to 5000 nM.
With `N[C@H](Cc1oc2c(NCc3cccs3)cc(Cl)nc2c1Br)C(F)F` [Compound 242, 2-[(R)-2-amino-3,3-difluoropropyl]-3-bromo-5-chloro-7-thenylamino-1-oxa-4-azaindene] the IC50 [1] was 101 to 500 nM, the EC50 [2] was 101 to 500 nM and the IC50 [3] was 101 to 500 nM.
For `N[C@H](Cc1oc2c(NCc3ccco3)cc(Cl)nc2c1Br)C(F)F` [Compound 243, 2-[(R)-2-amino-3,3-difluoropropyl]-3-bromo-5-chloro-7-(furfurylamino)-1-oxa-4-azaindene], the IC50 [1] was 101 to 500 nM, the EC50 [2] was 501 to 5000 nM and the IC50 [3] was 501 to 5000 nM.
With `C=C(C)c1c(C[C@H](C)N)oc2c(NCc3cccs3)cc(Cl)nc12` [Compound 252, 2-[(S)-2-aminopropyl]-5-chloro-3-isopropenyl-7-thenylamino-1-oxa-4-azaindene] the IC50 [1] was 5000 to 10000 nM, the EC50 [2] was 501 to 5000 nM and the IC50 [3] was 10000 to 40000 nM.
`C/C=C/c1c(C[C@H](C)N)oc2c(NCc3cccs3)cc(Cl)nc12` [Compound 253, 3-[(E)-1-propenyl]-2-[(S)-2-aminopropyl]-5-chloro-7-thenylamino-1-oxa-4-azaindene] was tested, and the IC50 [1] was 501 to 5000 nM, the EC50 [2] was 10000 to 40000 nM and the IC50 [3] was 501 to 5000 nM.
`C/C=C\c1c(C[C@H](C)N)oc2c(NCc3cccs3)cc(Cl)nc12` [Compound 254, 2-[(S)-2-aminopropyl]-3-[(Z)-1-propenyl]-5-chloro-7-thenylamino-1-oxa-4-azaindene] gave an IC50 [1] of 501 to 5000 nM, an EC50 [2] of 501 to 5000 nM and an IC50 [3] of 501 to 5000 nM.
`C[C@H](N)Cc1oc2c(NCc3cccs3)cc(Cl)nc2c1-c1cccs1` [Compound 256, 2-[(S)-2-aminopropyl]-5-chloro-7-thenylamino-3-(2-thienyl)-1-oxa-4-azaindene] was tested, and the IC50 [1] was 5000 to 10000 nM, the EC50 [2] was 10000 to 40000 nM and the IC50 [3] was 10000 to 40000 nM.
`C[C@H](N)Cc1oc2c(NCc3cccs3)cc(Cl)nc2c1-c1nccs1` [Compound 257, 2-[(S)-2-aminopropyl]-5-chloro-7-thenylamino-3-(1,3-thiazol-2-yl)-1-oxa-4-azaindene] gave an IC50 [1] of 10000 to 40000 nM, an EC50 [2] of 10000 to 40000 nM and an IC50 [3] of 10000 to 40000 nM.
